Assay results published in the supplement of paper PMC10307832.

Columns and labels:
Assay in all cases: relative viability (nuclei count vs DMSO), 5 days (fraction); higher = more cells survive
BEN = tested on: BEN
Method in brief: (§1)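 Medians of duplicate plates are given as relative viability. That measure is the nuclei count in treated wells divided by the count in vehicle wells. Counts were taken on 4× images of lung cancer cell lines in 1536-well plates, 5 days after pin-tool dosing the day after seeding with one drug alone or a fixed anchor-drug dose plus five library-drug doses (not always all listed) in √10 steps.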

HCC-15 = tested on: HCC-15
Method in brief: as §1

NCI-H1651 = tested on: NCI-H1651
Method in brief: as §1

HCC-78 = tested on: HCC-78
Method in brief: as §1

NCI-H358 = tested on: NCI-H358
Method in brief: as §1

ChaGo-K-1 = tested on: ChaGo-K-1
Method in brief: as §1

LXF-289 = tested on: LXF-289
Method in brief: as §1

H3255 = tested on: H3255
Method in brief: as §1

NCI-H650 = tested on: NCI-H650
Method in brief: as §1

LK-2 = tested on: LK-2
Method in brief: as §1

NCI-H596 = tested on: NCI-H596
Method in brief: as §1

SK-MES-1 = tested on: SK-MES-1
Method in brief: as §1

LC-2-ad = tested on: LC-2-ad
Method in brief: as §1

NCI-H2087 = tested on: NCI-H2087
Method in brief: as §1

UMC-11 = tested on: UMC-11
Method in brief: as §1

NCI-H322M = tested on: NCI-H322M
Method in brief: as §1

NCI-H838 = tested on: NCI-H838
Method in brief: as §1

LCLC-97TM1 = tested on: LCLC-97TM1
Method in brief: as §1

LU99A = tested on: LU99A
Method in brief: as §1

NCI-H661 = tested on: NCI-H661
Method in brief: as §1

NCI-H1944 = tested on: NCI-H1944
Method in brief: as §1

NCI-H2342 = tested on: NCI-H2342
Method in brief: as §1

NCI-H1666 = tested on: NCI-H1666
Method in brief: as §1

PC-3 [JPC-3] = tested on: PC-3 [JPC-3]
Method in brief: as §1

## COc1cc(N2CCC(C(N)=O)CC2)ccc1Nc1nc(N)c(Cl)c(Nc2ccccc2S(=O)(=O)C(C)C)n1 [HG-5-88-01] + COc1cc2c(Oc3ccc(NC(=O)C4(C(=O)Nc5ccc(F)cc5)CC4)cc3F)ccnc2cc1OCCCN1CCOCC1 [Foretinib] (partner 0.25 µM)
BEN; first compound 0.04 µM
  relative viability: 0.399
BEN; first compound 0.1265 µM
  relative viability: 0.702
BEN; first compound 0.4 µM
  relative viability: 0.444
BEN; first compound 1.265 µM
  relative viability: 0.62
BEN; first compound 4 µM
  relative viability: 0.448
HCC-15; first compound 0.04 µM
  relative viability: 1.02
HCC-15; first compound 0.1265 µM
  relative viability: 1.01
HCC-15; first compound 0.4 µM
  relative viability: 0.946
HCC-15; first compound 1.265 µM
  relative viability: 0.867
HCC-15; first compound 4 µM
  relative viability: 0.703
NCI-H1651; first compound 0.04 µM
  relative viability: 0.793
NCI-H1651; first compound 0.1265 µM
  relative viability: 0.922
NCI-H1651; first compound 0.4 µM
  relative viability: 0.998
NCI-H1651; first compound 1.265 µM
  relative viability: 0.762
NCI-H1651; first compound 4 µM
  relative viability: 1.02
HCC-78; first compound 0.04 µM
  relative viability: 0.589
HCC-78; first compound 0.1265 µM
  relative viability: 0.533
HCC-78; first compound 0.4 µM
  relative viability: 0.583
HCC-78; first compound 1.265 µM
  relative viability: 0.377
HCC-78; first compound 4 µM
  relative viability: 0.464
NCI-H358; first compound 0.04 µM
  relative viability: 0.676
NCI-H358; first compound 0.1265 µM
  relative viability: 0.605
NCI-H358; first compound 0.4 µM
  relative viability: 0.479
NCI-H358; first compound 1.265 µM
  relative viability: 0.224
NCI-H358; first compound 4 µM
  relative viability: 0.23
ChaGo-K-1; first compound 0.04 µM
  relative viability: 0.761
ChaGo-K-1; first compound 0.1265 µM
  relative viability: 1.03
ChaGo-K-1; first compound 0.4 µM
  relative viability: 0.804
ChaGo-K-1; first compound 1.265 µM
  relative viability: 0.942
ChaGo-K-1; first compound 4 µM
  relative viability: 0.909
LXF-289; first compound 0.04 µM
  relative viability: 1.04
LXF-289; first compound 0.1265 µM
  relative viability: 0.937
LXF-289; first compound 0.4 µM
  relative viability: 0.977
LXF-289; first compound 1.265 µM
  relative viability: 0.977
LXF-289; first compound 4 µM
  relative viability: 1.05
H3255; first compound 0.04 µM
  relative viability: 0.854
H3255; first compound 0.1265 µM
  relative viability: 0.874
H3255; first compound 0.4 µM
  relative viability: 0.856
H3255; first compound 4 µM
  relative viability: 0.649
NCI-H650; first compound 0.04 µM
  relative viability: 1.1
NCI-H650; first compound 0.1265 µM
  relative viability: 1.18
NCI-H650; first compound 0.4 µM
  relative viability: 0.949
NCI-H650; first compound 1.265 µM
  relative viability: 0.602
NCI-H650; first compound 4 µM
  relative viability: 0.719
LK-2; first compound 0.04 µM
  relative viability: 1.13
LK-2; first compound 0.1265 µM
  relative viability: 1.39
LK-2; first compound 0.4 µM
  relative viability: 0.784
LK-2; first compound 1.265 µM
  relative viability: 0.99
LK-2; first compound 4 µM
  relative viability: 0.808
NCI-H596; first compound 0.04 µM
  relative viability: 0.956
NCI-H596; first compound 0.1265 µM
  relative viability: 0.871
NCI-H596; first compound 0.4 µM
  relative viability: 0.801
NCI-H596; first compound 1.265 µM
  relative viability: 0.895
NCI-H596; first compound 4 µM
  relative viability: 0.487
SK-MES-1; first compound 0.04 µM
  relative viability: 0.875
SK-MES-1; first compound 0.1265 µM
  relative viability: 0.808
SK-MES-1; first compound 0.4 µM
  relative viability: 0.827
SK-MES-1; first compound 1.265 µM
  relative viability: 0.684
SK-MES-1; first compound 4 µM
  relative viability: 0.996
LC-2-ad; first compound 0.04 µM
  relative viability: 0.987
LC-2-ad; first compound 0.1265 µM
  relative viability: 0.906
LC-2-ad; first compound 0.4 µM
  relative viability: 0.956
LC-2-ad; first compound 1.265 µM
  relative viability: 0.54
LC-2-ad; first compound 4 µM
  relative viability: 0.739
NCI-H2087; first compound 0.04 µM
  relative viability: 1.13
NCI-H2087; first compound 0.1265 µM
  relative viability: 1.24
NCI-H2087; first compound 0.4 µM
  relative viability: 1.06
NCI-H2087; first compound 1.265 µM
  relative viability: 1.14
NCI-H2087; first compound 4 µM
  relative viability: 0.864
UMC-11; first compound 0.04 µM
  relative viability: 1.09
UMC-11; first compound 0.1265 µM
  relative viability: 1.07
UMC-11; first compound 1.265 µM
  relative viability: 0.923
UMC-11; first compound 4 µM
  relative viability: 0.371
NCI-H322M; first compound 0.04 µM
  relative viability: 0.927
NCI-H322M; first compound 0.1265 µM
  relative viability: 0.782
NCI-H322M; first compound 0.4 µM
  relative viability: 0.635
NCI-H322M; first compound 4 µM
  relative viability: 0.759
NCI-H838; first compound 0.04 µM
  relative viability: 0.939
NCI-H838; first compound 0.1265 µM
  relative viability: 1.02
NCI-H838; first compound 0.4 µM
  relative viability: 0.797
NCI-H838; first compound 1.265 µM
  relative viability: 0.814
NCI-H838; first compound 4 µM
  relative viability: 0.893
LCLC-97TM1; first compound 0.04 µM
  relative viability: 0.893
LCLC-97TM1; first compound 0.1265 µM
  relative viability: 0.972
LCLC-97TM1; first compound 0.4 µM
  relative viability: 0.882
LCLC-97TM1; first compound 1.265 µM
  relative viability: 0.864
LCLC-97TM1; first compound 4 µM
  relative viability: 0.326
LU99A; first compound 0.04 µM
  relative viability: 0.774
LU99A; first compound 0.1265 µM
  relative viability: 0.751
LU99A; first compound 0.4 µM
  relative viability: 0.781
LU99A; first compound 1.265 µM
  relative viability: 0.83
LU99A; first compound 4 µM
  relative viability: 0.801
NCI-H661; first compound 0.04 µM
  relative viability: 1.01
NCI-H661; first compound 0.1265 µM
  relative viability: 1.05
NCI-H661; first compound 0.4 µM
  relative viability: 1.1
NCI-H661; first compound 1.265 µM
  relative viability: 1.03
NCI-H661; first compound 4 µM
  relative viability: 1.09
NCI-H1944; first compound 0.04 µM
  relative viability: 0.874
NCI-H1944; first compound 0.1265 µM
  relative viability: 0.884
NCI-H1944; first compound 0.4 µM
  relative viability: 0.917
NCI-H1944; first compound 1.265 µM
  relative viability: 0.883
NCI-H1944; first compound 4 µM
  relative viability: 0.886
NCI-H2342; first compound 0.04 µM
  relative viability: 1.19
NCI-H2342; first compound 0.1265 µM
  relative viability: 1.06
NCI-H2342; first compound 0.4 µM
  relative viability: 1.13
NCI-H2342; first compound 1.265 µM
  relative viability: 0.697
NCI-H2342; first compound 4 µM
  relative viability: 1.04
NCI-H1666; first compound 0.04 µM
  relative viability: 1.06
NCI-H1666; first compound 0.1265 µM
  relative viability: 1.06
NCI-H1666; first compound 0.4 µM
  relative viability: 1
NCI-H1666; first compound 1.265 µM
  relative viability: 0.74
NCI-H1666; first compound 4 µM
  relative viability: 0.677
PC-3 [JPC-3]; first compound 0.04 µM
  relative viability: 1.07
PC-3 [JPC-3]; first compound 0.1265 µM
  relative viability: 1.04
PC-3 [JPC-3]; first compound 0.4 µM
  relative viability: 1.03
PC-3 [JPC-3]; first compound 1.265 µM
  relative viability: 0.99
PC-3 [JPC-3]; first compound 4 µM
  relative viability: 0.724
